Test results from patent publication US7799809B2, “Carboxamide compounds and their use as calpain inhibitors” (Abbott GmbH & Co. KG, priority 2006, dated 2010).

How the values were obtained:
Assay type in all cases: biochemical
[1] = target: T1, cathepsin S (Homo sapiens, UniProt P25774); assay: Cathepsin S enzyme inhibition in vitro (kinetic fluorescence assay); conditions: recombinant human cathepsin S vs calpain I
T1 construct: purchased Calbiochem 219343; host or cells: E. coli
Method: (§1) The following solutions and buffers were employed: • HBS (for 40 ml): 800 μl M HEPES; 2.16 ml 100 mM KCl; 4.8 ml 1M NaCl; 3.59 ml 5% glucose; 60 μl μM MgSO4; 400 μl 100 mM Na pyruvate, 28.19 ml water; pH 7.2-7.5. • lysis buffer (for 20 ml): 400 μl M Tris pH 8.2; 2.74 ml 1M NaCl; 520 μl 0.5M EDTA; 2 ml 10% triton X-100; 0.8 ml (=1:25) CompletePlus (1 tablet/2 ml H2O); 200 μl 100 mM Pefabloc; 13.34 ml water, pH 8.2. • TBST (10×) (for 1 l): 100 mM Tris (12.1 g); 1.5M NaCl (87 g); 1% Tween 20 (10 g), adjusted to pH 8. I Enzyme Inhibition In Vitro: • Testing for blockade of the corresponding enzymic activities was carried out by means of kinetic fluorescence assays (excitation 390 nm, emission 460 nm). • Apparent Ki values were calculated from the experimentally determined IC50 values by the Cheng-Prussoff relation assuming a reversible competitive enzyme inhibition. The Km values of the substrates used under the assay conditions indicated above were: 90 μM (Z-Phe-Arg-AMC, cathepsin B), 10 μM (Z-Gly-Pro-Arg-AMC, cathepsin K), 2 μM (Z-Phe-Arg-AMC, cathepsin L), and 30 μM (Z-Val-Val-Arg-AMC, cathepsin S). • The indicated Ki values are averages of the inhibition constants calculated on the basis of 2 to 4 independent dose-effect plots.
(§2) The following assays were used: • 1. Calpain I: • 20 nM calpain-I—isolated from human erythrocytes (Calbiochem #208713), 100 μM Suc-Leu-Tyr-AMC (Bachem #1-1355) as substrate in buffer with 62 mM imidazole, 0.3 mM CaCl2, 0.10% CHAPS, 0.05% BSA, 1 mM DTT at pH 7.3 and room temperature. • 2. Cathepsin B: • 0.25 nM cathepsin B—isolated from human liver (Calbiochem #219362), 100 μM Z-Phe-Arg-AMC (Bachem #I-1160) as substrate 50 mM MES, 2 mM EDTA, 0.05% Brij 35, 2.5 mM L-cysteine, pH 6.0, room temperature. • 3. Cathepsin K: • 3 nM cathepsin K—activated from recombinant human procathepsin K from E. coli (Calbiochem #342001), 10 μM Z-Gly-Pro-Arg-AMC (Biomol #P-142) as substrate in 50 mM MES, 2 mM EDTA, 0.05% Brij 35, 2.5 mM L-cysteine, pH 6.0, room temperature. • 4. Cathepsin L: • 1 nM cathepsin L—isolated from human liver (Calbiochem #219402), 2 μM Z-Phe-Arg-AMC (Bachem #1-1160) as substrate in 50 mM MES, 2 mM EDTA, 0.05% Brij 35, 2.5 mM L-cysteine, pH 6.0, room temperature. • 5. Cathepsin S: • 0.5 nM recombinant human cathepsin S from E. coli (Calbiochem #219343), 20 μM Z-Val-Val-Arg-AMC (Bachem #1-1540) as substrate in 50 mM MES, 2 mM EDTA, 0.05% Brij 35, 2.5 mM L-cysteine, pH 6.0, room temperature. • The results of the in vitro determination are indicated in Table 1. The following abbreviations are used in Table 1: • The “Calpain activity” column, ++ stands for a calpain Ki (Ki(calpain)) of ≦40 nM and + means: 40 nM<Ki(Calpain)≦100 nM. • The “Sel. cat. B” column indicates the Ki(cathepsin B)/Ki(calpain) ratio. In this connection, ++ means a Ki(cathepsin B)/Ki(calpain) ratio of ≧30 and + means 10≦Ki(cathepsin B)/Ki(calpain)<30. • The “Sel. cat. K” column indicates the Ki(cathepsin K)/Ki(calpain) ratio. In this connection, ++ means a Ki(cathepsin K)/Ki(calpain) ratio of ≧30 and + means 10≦Ki(cathepsin K)/Ki(calpain)<30. • The “Sel. cat. L” column indicates the Ki(cathepsin L)/Ki(calpain) ratio. In this connection, ++ means a Ki(cathepsin L)/Ki(calpain) ratio of ≧50 and + means 30≦Ki(cathepsin L)/Ki(calpain)<50. • The “Sel. cat. S” column indicates the Ki(cathepsin S)/Ki(calpain) ratio. In this connection, ++ means a Ki(cathepsin S)/Ki(calpain) ratio of ≧100 and + means 50≦Ki(cathepsin S)/Ki(calpain)<100.

[2] = target: T2, cathepsin B (Homo sapiens, UniProt P07858); assay: Cathepsin B enzyme inhibition in vitro (kinetic fluorescence assay); conditions: cathepsin B isolated from human liver vs calpain I
T2 construct: cathepsin B—isolated from human liver (Calbiochem #219362); purchased Calbiochem 219362; host or cells: human liver (tissue-derived)
Method: as §1, §2

[3] = target: T3, cathepsin L (Homo sapiens, UniProt P07711); assay: Cathepsin L enzyme inhibition in vitro (kinetic fluorescence assay); conditions: cathepsin L isolated from human liver vs calpain I
T3 construct: cathepsin L—isolated from human liver (Calbiochem #219402); purchased Calbiochem 219402; host or cells: human liver (tissue-derived)
T3 sequence (P07711 114-333): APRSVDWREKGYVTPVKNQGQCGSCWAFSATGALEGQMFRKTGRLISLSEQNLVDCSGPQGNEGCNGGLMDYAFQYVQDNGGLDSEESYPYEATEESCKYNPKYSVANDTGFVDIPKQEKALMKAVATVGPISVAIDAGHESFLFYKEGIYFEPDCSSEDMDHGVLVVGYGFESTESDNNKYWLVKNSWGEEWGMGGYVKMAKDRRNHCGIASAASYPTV
Method: as §1, §2

T1 sequence (P25774 115-331): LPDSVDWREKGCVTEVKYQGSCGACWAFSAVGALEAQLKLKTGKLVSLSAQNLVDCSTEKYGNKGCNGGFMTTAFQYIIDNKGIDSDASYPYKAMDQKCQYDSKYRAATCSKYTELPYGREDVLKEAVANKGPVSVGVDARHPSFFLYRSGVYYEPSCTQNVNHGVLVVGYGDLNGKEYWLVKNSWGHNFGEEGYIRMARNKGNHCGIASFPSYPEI

Row | Compound | Sel cat. S: Ki(cathepsin S)/Ki(calpain) ratio [1] | Sel cat. B: Ki(cathepsin B)/Ki(calpain) ratio [2] | Sel cat. L: Ki(cathepsin L)/Ki(calpain) ratio [3]
1 | CCCCC(NC(=O)c1cccnc1-n1ccc(-c2ccc(N3CCOCC3)cc2)n1)C(=O)C(N)=O (centres unmarked) [Example 33, N-{1-[Amino(oxo)acetyl]pentyl}-2-[3-(4-morpholin-4-ylphenyl)-1H-pyrazol-1-yl]nicotinamide] | + (+ means 50≦Ki(cathepsin S)/Ki(calpain)<100) | + (+ means 10≦Ki(cathepsin B)/Ki(calpain)<30) | 
2 | NC(=O)C(=O)C(Cc1cccs1)NC(=O)c1cccnc1-n1ccc(-c2ccccc2)n1 (centres unmarked) [Example 40, N-[3-Amino-2,3-dioxo-1-(2-thienylmethyl)propyl]-2-(3-phenyl-1H-pyrazol-1-yl)pyridine-3-carboxamide] | ++ (++ means a Ki(cathepsin S)/Ki(calpain) ratio of ≧100) | + (+ means 10≦Ki(cathepsin B)/Ki(calpain)<30) | ++ (++ means a Ki(cathepsin L)/Ki(calpain) ratio of ≧50)
3 | NC(=O)C(=O)C(Cc1ccccc1)NC(=O)c1cccnc1-n1ccc(-c2ccc(N3CCCCC3)cc2)n1 (centres unmarked) [Example 64, N-(3-Amino-1-benzyl-2,3-dioxopropyl)-2-[3-(4-piperidin-1-ylphenyl)-1H-pyrazol-1-yl]nicotinamide] | ++ (++ means a Ki(cathepsin S)/Ki(calpain) ratio of ≧100) | + (+ means 10≦Ki(cathepsin B)/Ki(calpain)<30) | 
4 | CCCCC(NC(=O)c1cc(Cl)cnc1-n1ccc(-c2ccccc2)n1)C(=O)C(N)=O (centres unmarked) [Example 28, N-{1-[Amino(oxo)acetyl]pentyl}-5-chloro-2-(3-phenyl-1H-pyrazol-1-yl)nicotinamide] |  | + (+ means 10≦Ki(cathepsin B)/Ki(calpain)<30) | 
5 | CC(C)CC(NC(=O)c1cc(Cl)cnc1-n1ccc(-c2ccccc2)n1)C(=O)C(N)=O (centres unmarked) [Example 32, N-{1-[Amino(oxo)acetyl]-3-methylbutyl}-5-chloro-2-(3-phenyl-1H-pyrazol-1-yl)nicotinamide] |  | + (+ means 10≦Ki(cathepsin B)/Ki(calpain)<30) | 
6 | Cc1cc(-c2ccccc2)nn1-c1ncccc1C(=O)NC(Cc1ccccc1)C(=O)C(N)=O (centres unmarked) [Example 61, N-(3-Amino-1-benzyl-2,3-dioxopropyl)-2-(5-methyl-3-phenyl-1H-pyrazol-1-yl)nicotinamide] | ++ (++ means a Ki(cathepsin S)/Ki(calpain) ratio of ≧100) | + (+ means 10≦Ki(cathepsin B)/Ki(calpain)<30) | 
7 | N-{3-Amino-1-[(4-fluorophenyl)methyl]-2,3-dioxopropyl}-2-[3-(2,3-dichlorophenyl)-1H-pyrazol-1-yl]pyridine-3-carboxamide [Example 161] | ++ (++ means a Ki(cathepsin S)/Ki(calpain) ratio of ≧100) | + (+ means 10≦Ki(cathepsin B)/Ki(calpain)<30) | + (+ means 30≦Ki(cathepsin L)/Ki(calpain)<50)
8 | NC(=O)C(=O)C(Cc1ccc(Br)cc1)NC(=O)c1cccnc1-n1ccc(-c2ccccc2)n1 (centres unmarked) [Example 122, N-{3-Amino-1-[(4-bromophenyl)methyl]-2,3-dioxopropyl}-2-(3-phenyl-1H-pyrazol-1-yl)pyridine-3-carboxamide] | ++ (++ means a Ki(cathepsin S)/Ki(calpain) ratio of ≧100) | ++ (++ means a Ki(cathepsin B)/Ki(calpain) ratio of ≧30) | ++ (++ means a Ki(cathepsin L)/Ki(calpain) ratio of ≧50)
9 | CC(C)c1ccc2c(c1)-c1nn(-c3ncccc3C(=O)NC(Cc3ccccc3)C(=O)C(N)=O)cc1CO2 (centres unmarked) [Example 144, N-[3-Amino-2,3-dioxo-1-(phenylmethyl)propyl]-2-[8-(1-methylethyl)chromeno[4,3-c]pyrazol-2(4H)-yl]pyridine-3-carboxamide] | ++ (++ means a Ki(cathepsin S)/Ki(calpain) ratio of ≧100) | + (+ means 10≦Ki(cathepsin B)/Ki(calpain)<30) | ++ (++ means a Ki(cathepsin L)/Ki(calpain) ratio of ≧50)
10 | NC(=O)C(=O)C(Cc1ccccc1)NC(=O)c1cccnc1-n1cnc(-c2ccc(Cl)cc2)c1 (centres unmarked) [Example 9, N-(3-Amino-1-benzyl-2,3-dioxopropyl)-2-[4-(4-chlorophenyl)-1H-imidazol-1-yl]nicotinamide] | ++ (++ means a Ki(cathepsin S)/Ki(calpain) ratio of ≧100) |  | + (+ means 30≦Ki(cathepsin L)/Ki(calpain)<50)
11 | CS(=O)(=O)NCc1cn(-c2ncccc2C(=O)NC(Cc2ccccc2)C(=O)C(N)=O)nc1-c1ccc(F)cc1 (centres unmarked) [Example 187, N-[3-Amino-2,3-dioxo-1-(phenylmethyl)propyl]-2-[3-(4-fluorophenyl)-4-{[(methylsulfonyl)amino]methyl}-1H-pyrazol-1-yl]pyridine-3-carboxamide] | ++ (++ means a Ki(cathepsin S)/Ki(calpain) ratio of ≧100) |  | + (+ means 30≦Ki(cathepsin L)/Ki(calpain)<50)
12 | NC(=O)C(=O)C(Cc1ccccc1)NC(=O)c1cccnc1-n1ccc(-c2ccc(Cl)cc2)n1 (centres unmarked) [Example 39, N-(3-Amino-1-benzyl-2,3-dioxopropyl)-2-[3-(4-chlorophenyl)-1H-pyrazol-1-yl]nicotinamide] | ++ (++ means a Ki(cathepsin S)/Ki(calpain) ratio of ≧100) |  | ++ (++ means a Ki(cathepsin L)/Ki(calpain) ratio of ≧50)
13 | NC(=O)C(=O)C(Cc1ccccc1)NC(=O)c1cccnc1-n1cc(COc2ccccc2)c(-c2ccc(F)cc2)n1 (centres unmarked) [Example 179, N-[3-Amino-2,3-dioxo-1-(phenylmethyl)propyl]-2-{3-(4-fluorophenyl)-4-[(phenyloxy)methyl]-1H-pyrazol-1-yl}pyridine-3-carboxamide] | ++ (++ means a Ki(cathepsin S)/Ki(calpain) ratio of ≧100) |  | + (+ means 30≦Ki(cathepsin L)/Ki(calpain)<50)
14 | CCCCC(NC(=O)c1cccnc1-n1cnc(-c2ccc(N3CCOCC3)cc2)c1)C(=O)C(N)=O.Cl (centres unmarked) [Example 15, N-{1-[Amino(oxo)acetyl]pentyl}-2-[4-(4-morpholin-4-ylphenyl)-1H-imidazol-1-yl]nicotinamide hydrochloride] | + (+ means 50≦Ki(cathepsin S)/Ki(calpain)<100) |  | ++ (++ means a Ki(cathepsin L)/Ki(calpain) ratio of ≧50)
15 | NC(=O)C(=O)C(Cc1ccccc1)NC(=O)c1ccccc1-n1ccc(-c2ccccc2)n1 (centres unmarked) [Example 106, N-[3-Amino-2,3-dioxo-1-(phenylmethyl)propyl]-2-(3-phenyl-1H-pyrazol-1-yl)benzamide] | ++ (++ means a Ki(cathepsin S)/Ki(calpain) ratio of ≧100) |  | + (+ means 30≦Ki(cathepsin L)/Ki(calpain)<50)
